# Measurements: patent US9481654B2, “Compositions and methods for inhibition of the JAK pathway” (Rigel Pharmaceuticals, Inc., priority 2006, dated 2016)
# pIC50: −log10 of the molar value.
# What was measured:
# Assay type in all cases: cell-based
# [1] = system: IL-4 stimulated CD23 upregulation in human Ramos B cells (JAK-1/JAK-3, Stat-6); experiment: Assay for Ramos B-Cell Line Stimulated with IL-4 (CD23 upregulation, FACS); conditions: Table III Example 3
# Procedure, shortened: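 Flow cytometry of CD23 staining after 20-24 h IL-4 stimulation (50 units/mL final) of human Ramos B cells in RPMI with 5% serum. Cells, 5×10^4 per point, received compound or DMSO vehicle for 1 h at 37° C prior to stimulation.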
# [2] = system: primary human T-cells (IL-2 induced proliferation, JAK-1/JAK-3, Stat-5); experiment: Primary Human T-Cell Proliferation Assay Stimulated with IL-2 (CellTiter-Glo); conditions: Table III Example 4
# Procedure, shortened: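 Read-out is intracellular ATP luminescence (CellTiter-Glo) after 72 h at 37 °C of IL-2-driven growth. Cells, pre-stimulated via TCR and CD28 then washed free of IL-2, were resuspended in Yssel's medium, given 80 U/mL IL-2 in the cell suspension plus duplicate compound; unstimulated wells lacked IL-2.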
# [3] = system: IFNγ induced ICAM-1 (CD54) up-regulation in U937 human monocytic cells (JAK/Stat pathway); experiment: U937 IFNγ ICAM1 FACS Assay; conditions: Table III Example 6, 10 ng/mL IFNγ, 18-24 hours
# From the text: A549 lung epithelial cells and U937 cells up-regulate ICAM-1 (CD54) surface expression in response to a variety of different stimuli. Therefore, using ICAM-1 expression as readout, test compound effects on different signaling pathways can be assessed in the same cell type. Stimulation with IL-1β through the IL-1β receptor activates the TRAF6/NFκB pathway resulting in up-regulation of ICAM-1. IFNγ induces ICAM-1 up-regulation through activation of the JAK1/JAK2 pathway. The up-regulation of ICAM-1 can be quantified by flow cytometry across a compound dose curve and EC50 values are calculated. Exemplary assays of this type are described in greater detail in Examples 5 and 6. U937 human monocytic cells up-regulate ICAM-1 (CD54) surface expression in response to a variety of different stimuli. Therefore, using ICAM-1 expression as readout, compound effects on different signaling pathways can be assessed in the same cell type. IFNγ up-regulates ICAM-1 through activation of the JAK/Stat pathway. In this example, the up-regulation of ICAM-1 by IFNγ was assessed. […] The cells were then plated at a concentration of 100,000 cells per 160 μL in 96 well flat bottom plates. The test compounds were then diluted as follows: 10 mM test compound was diluted 1:5 in DMSO (3 μL 10 mM test compound in 12 μL DMSO), followed by a 1:3 serial dilution of test compound in DMSO (6 μL test compound serially diluted into 12 μL DMSO to give 3-fold dilutions). […] For control wells, 4 μL of DMSO was diluted into 76 μL 10% RPMI. […] The cells and compounds were then pre-incubated for 30 minutes at 37° C. with 5% CO2. […] The cells were kept under conditions for stimulation for 18-24 hours at 37° C. with 5% CO2. […] Cells were spun down at 1000 rpm for 5 minutes at 4° C., following which the supernatant was removed. […] The cells were then incubated on ice in the dark for 30 minutes. […] After suspension, the cells were centrifuged at 1000 rpm for 5 min at 4° C. […] Detection was performed using a BD LSR I System Flow Cytometer, purchased from BD Biosciences of San Jose, Calif. The live cells were gated for live scatter and the geometric mean of ICAM-APC was measured (Becton-Dickinson CellQuest software version 3.3, Franklin Lakes, N.J.). Both % live cells and ICAM-1 expression was analyzed. The assays for the test compounds were carried out in parallel with a control compound of known activity.
Structure (SMILES),pIC50 [1],pIC50 [2],pIC50 [3],"pIC50 ([1]; Homo sapiens, Ramos)","pIC50 ([2]; Homo sapiens, T-cell)","pIC50 ([3]; Homo sapiens, U-937)"
"CCCNS(=O)(=O)c1ccc(Nc2ncc(C)c(Nc3ccc(CNS(=O)(=O)C4CC4)cc3)n2)cc1 [Compound I-177, N4-(4-cyclopropylsulfonylaminomethyl)phenyl-5-methyl-N2-(4-propylaminosulfonyl)phenyl-2,4-pyrimidinediamine]",7.75,6.80,6.97,,,
"COCCNS(=O)(=O)c1ccc(Nc2ncc(C)c(Nc3ccc(CNS(=O)(=O)C4CC4)cc3)n2)cc1 [Compound I-183, N4-(4-cyclopropylsulfonylaminomethyl)phenyl-N2-[4-(2-methoxyethyl)aminosulfonyl]phenyl-5-methyl-2,4-pyrimidinediamine]",7.18,6.81,6.68,,,
"CNS(=O)(=O)c1ccc(Nc2ncc(C)c(Nc3ccc(CNS(=O)(=O)C4CC4)cc3)n2)cc1 [Compound I-163, N4-(4-cyclopropylsulfonylaminomethyl)phenyl-5-methyl-N2-(4-methylaminosulfonyl)phenyl-2,4-pyrimidinediamine]",7.33,7.28,6.84,,,
"Cc1cnc(Nc2cccc(S(=O)(=O)Nc3ccccc3)c2)nc1Nc1ccc(CNS(=O)(=O)C2CC2)cc1 [Compound I-150, N4-(4-cyclopropylsulfonylaminomethyl)phenyl-5-methyl-N2-(3-phenylaminosulfonyl)phenyl-2,4-pyrimidinediamine]",7.05,6.90,6.25,,,
"CC(C)S(=O)(=O)NCc1ccc(Nc2nc(Nc3cccc(S(N)(=O)=O)c3)ncc2F)cc1 [Compound I-66, N2-(3-aminosulfonyl)phenyl-5-fluoro-N4-(4-isopropylsulfonylaminomethyl)phenyl-2,4-pyrimidinediamine]",7.16,7.19,6.33,,,
"Cc1cnc(Nc2ccc(S(N)(=O)=O)cc2)nc1Nc1ccc(CNS(=O)(=O)C2CC2)c(Cl)c1 [Compound I-129, N2-(4-aminosulfonyl)phenyl-N4-(3-chloro-4-cyclopropylsulfonylaminomethyl)phenyl-5-methyl-2,4-pyrimidinediamine]",6.79,6.36,5.60,,,
"CCNS(=O)(=O)c1ccc(Nc2ncc(C)c(Nc3cccc(CNS(=O)(=O)C4CC4)c3)n2)cc1 [Compound I-212, N4-(3-cyclopropylsulfonylaminomethyl)phenyl-N2-(4-ethylaminosulfonyl)phenyl-5-methyl-2,4-pyrimidinediamine]",6.63,6.79,6.67,,,
"C#CCNS(=O)(=O)Cc1cccc(Nc2nc(Nc3cccc(S(N)(=O)=O)c3)ncc2F)c1 [Compound I-3, N2-(3-Aminosulfonylphenyl)-5-fluoro-N4-[3-(prop-2-ynylaminosulfonylmethyl)phenyl]-2,4-pyrimidinediamine]",,,,6.64,6.34,5.34
"Cc1cnc(Nc2ccc(S(N)(=O)=O)cc2)nc1Nc1ccc(CN(C)S(=O)(=O)C2CC2)cc1 [Compound I-127, N2-(4-aminosulfonyl)phenyl-N4-[4-(N-cyclopropylsulfonyl-N-methyl)aminomethyl]phenyl-5-methyl-2,4-pyrimidinediamine]",6.90,6.63,6.21,,,
"Cc1cnc(Nc2ccc(S(N)(=O)=O)cc2)nc1Nc1ccc(CNS(=O)(=O)CC(F)(F)F)cc1 [Compound I-96, N2-(4-aminosulfonyl)phenyl-5-methyl-N4-(4-trifluoroethylsulfonylaminomethyl)phenyl-2,4-pyrimidinediamine]",7.13,6.98,5.44,,,
"Cc1cnc(Nc2ccc(S(N)(=O)=O)cc2)nc1Nc1ccc(CCNS(=O)(=O)C2CC2)cc1 [Compound I-53, N2-(4-aminosulfonyl)phenyl-N4-[4-(2-cyclopropylsulfonylamino)ethyl]phenyl-5-methyl-2,4-pyrimidinediamine]",6.88,6.76,6.22,,,
"CCCN(Cc1ccc(Nc2nc(Nc3ccc(C)c(S(N)(=O)=O)c3)ncc2F)cc1)S(=O)(=O)CC [Compound I-19, N2-(3-aminosulfonyl-4-methyl)phenyl-N4-[4-(N-ethylsulfonyl-N-propylamino)methyl]phenyl-5-fluoro-2,4-pyrimidinediamine]",6.83,6.31,5.78,,,
"Cc1ccc(Nc2ncc(F)c(Nc3ccc(CNS(=O)(=O)c4cccnc4)cc3)n2)cc1S(N)(=O)=O [Compound I-90, N2-(3-aminosulfonyl-4-methyl)phenyl-5-fluoro-N4-[4-(pyrid-3-yl)sulfonylaminomethyl]phenyl-2,4-pyrimidinediamine]",6.82,6.46,5.61,,,
"Cc1cnc(Nc2cccc(S(=O)(=O)NC3CCCC3)c2)nc1Nc1ccc(CNS(=O)(=O)C2CC2)cc1 [Compound I-170, N2-(3-cyclopentylaminosulfonyl)phenyl-N4-(4-cyclopropylsulfonylaminomethyl)phenyl-5-methyl-2,4-pyrimidinediamine]",6.87,6.76,6.62,,,
"CCCN(Cc1ccc(Nc2nc(Nc3cccc(S(N)(=O)=O)c3)ncc2F)cc1)S(=O)(=O)CC [Compound I-18, N2-(3-aminosulfonyl)phenyl-N4-[4-(N-ethylsulfonyl-N-propylamino)methyl]phenyl-5-fluoro-2,4-pyrimidinediamine]",6.97,6.57,5.89,,,
"Cc1cnc(Nc2ccc(S(N)(=O)=O)cc2)nc1Nc1ccc(CNS(=O)(=O)C2CC2)cc1 [Compound I-45, N2-(4-aminosulfonyl)phenyl-N4-(4-cyclopropylsulfonylaminomethyl)phenyl-5-methyl-2,4-pyrimidinediamine]",7.22,7.53,6.55,,,
"NS(=O)(=O)c1cccc(Nc2ncc(F)c(Nc3ccc(CNS(=O)(=O)C4CC4)cc3)n2)c1 [Compound I-24, N2-(3-aminosulfonyl)phenyl-N4-(4-cyclopropylsulfonylaminomethyl)phenyl-5-fluoro-2,4-pyrimidinediamine]",7.23,7.49,6.29,,,
"CCS(=O)(=O)NCCc1ccc(Nc2nc(Nc3cccc(S(N)(=O)=O)c3)ncc2F)cc1 [Compound I-15, N2-(3-aminosulfonyl)phenyl-N4-[4-(2-ethylsulfonylamino)ethyl]phenyl-5-fluoro-2,4-pyrimidinediamine]",7.18,6.73,5.51,,,
"Cc1ccc(Nc2ncc(C)c(Nc3ccc(CNS(=O)(=O)CC(F)(F)F)cc3)n2)cc1S(N)(=O)=O [Compound I-98, N2-(3-aminosulfonyl-4-methyl)phenyl-5-methyl-N4-(4-trifluoroethylsulfonylaminomethyl)phenyl-2,4-pyrimidinediamine]",7.60,7.28,6.82,,,
"NS(=O)(=O)c1cccc(Nc2ncc(F)c(Nc3ccc(CNS(=O)(=O)c4cccnc4)cc3)n2)c1 [Compound I-95, N2-(3-aminosulfonyl)phenyl-5-fluoro-N4-[4-(pyrid-3-yl)sulfonylaminomethyl]phenyl-2,4-pyrimidinediamine]",6.80,6.54,5.57,,,
"Cc1ccc(Nc2ncc(F)c(Nc3ccc(CNS(=O)(=O)C4CC4)cc3)n2)cc1S(N)(=O)=O [Compound I-25, N2-(3-aminosulfonyl-4-methyl)phenyl-N4-(4-cyclopropylsulfonylaminomethyl)phenyl-5-fluoro-2,4-pyrimidinediamine]",7.16,7.19,6.44,,,
